How the values were obtained:
[1] = tested on: porcine fibroblasts; test: MTT cell attachment assay on sterilized scaffolds; conditions: incubated for 3 hours to attach, viable for 16 hours
Experimental: Then, a 100 μL aliquot of DMEM in which porcine fibroblasts were suspended was added to each scaffold disc such that a total of about 50,000 fibroblasts were seeded on the plates. Then, the plate was incubated at 37° C. in 5% CO2 atmosphere for 3 hours to allow the fibroblasts to attach to scaffold substrates. The scaffold substrates were carefully transferred to another well such that the cells attached to the scaffold would remain undisturbed. Then, the plate was incubated at 37° C. in 5% CO2 atmosphere for 12 hours. Then, 10 μL of MTT solution (3-[4,5-dimethylthiazol-2yl]-2,5-diphenyltetrazolium bromide; 5 mg/ml, Sigma Aldrich) dissolved in PBS was added to each well and incubated at 37° C. in 5% CO2 atmosphere for 5 hours. Then, the media were removed and 200 μL of dimethyl sulfoxide (DMSO) was added to each well to dissolve the formazan by pipetting. After incubation for 10 minutes, 100 μL of solutions from the respective substrate wells were pipetted into another 96-well plate. Finally, the absorbance of the samples was determined using a spectrophotometer with a test wavelength of 570 nm and a reference wavelength of 630 nm.

[2] = tested on: porcine fibroblasts; test: Ki-67 immunostaining of fibroblasts in conditioned medium; format: cell-based; conditions: conditioned medium from treated scaffolds
Experimental: Conditioned and control media were prepared by the method described in Example 6-1, and about 5000 porcine fibroblasts were cultured on gelatin-coated 4-well plates for 24 hours. Then, the medium was switched to conditioned or control medium. The medium was changed every 24 hours. The proliferation potential of the soluble factors eluted from the scaffolds was checked after incubation for 24 hour and 48 hours. Cells were immunostained using anti-Ki-67 antibody (Abcam, Cambridge, UK). Texas Red goat anti-rabbit IgG (Invitrogen) was used as a secondary antibody. Nuclei were counterstained using a mounting medium containing DAPI. The percentage of Ki-67 positive cells was calculated as the ratio of average positive Ki-67 cells relative to 250 DAPI-stained cells.

[3] = tested on: porcine liver scaffolds; test: Sterilization effect on scaffolds according to culture time (DMEM + 10% FBS, Columbia blood agar)
Experimental: First, the porcine liver scaffolds prepared in Example 1 were divided into two groups: an experimental group in which the scaffolds were immersed in the slightly acidic electrolyzed water prepared in Example 2 to be sterilized for […], 60 minutes, 90 minutes, and 120 minutes, respectively; and a control group in which the scaffolds were treated with PBS, peracetic acid (PAA) solution (Sigma-Aldrich, St Louis, Mo., USA), and 70% ethanol solution (Daejung Chemicals and Metals, Seoul, Korea), instead of the slightly acidic electrolyzed water. The slightly acidic electrolyzed water was changed every 15 minutes to be the best fit for sterilization of the porcine liver scaffolds, and the sterilized porcine liver scaffolds were washed with PBS once.
The porcine liver scaffolds of the experimental group and the control group treated by the method described in the above section 3-1 were incubated in Dulbecco's Modified Eagle's Medium (DMEM; Invitrogen, Carlsbad, Calif., USA) supplemented with 10% fetal bovine serum (FBS, Hyclone, Logan, Utah, USA) at 37° C. and on Columbia blood agar medium (Fluka Chemie GmbH) for 96 hours and then checked periodically for signs of infection. In the event of infection, the discoloration and turbidity of medium increases, and the growth of cell colonies is observed on blood agar medium.
In Table 2, (−) represents that no symptoms of infection were observed; (+) represents that symptoms of infection were observed; (x) represents that symptoms of infection were observed before observation time; native liver, decellularized liver, and PBS-treated liver were used as positive controls; and medium without scaffolds was used as the negative control.

[4] = Glycosaminoglycan content, dimethyl methylene blue dye-binding assay (Blyscan kit); parameters: species or system porcine; conditions: for content of glycosaminoglycans, % of that in untreated and decellularized scaffolds: relative to untreated and decellularized scaffolds; for content of glycosaminoglycans, % of that in untreated scaffolds: relative to untreated scaffolds
Experimental: To evaluate the effects of the slightly acidic electrolyzed water of the present invention on the content of glycosaminoglycans, the content of glycosaminoglycans in decellularized liver (untreated scaffolds), scaffolds treated with PBS, and scaffolds treated with the slightly acidic electrolyzed water of the present invention were determined using a dimethyl methylene blue dye-binding assay kit (Blyscan kit; Biocolor Ltd) according to the manufacturer's instructions. First, 5 mg of lyophilized sample was homogenized and solubilized. A 100 μL aliquot from each sample lysate was added to 1 mL of dimethyl methylene blue solution and agitated on a shaker at 25° C. for 30 minutes. The resulting solutions were then centrifuged at 10,000×g for 10 minutes to collect the GAG dye complex, and the supernatants were discarded. The remaining pellet was suspended in 1 mL of the provided dissociation reagent, and the absorbance was measured at 655 nm. Chondroitin sulfate provided in the kit was used as a standard of glycosaminoglycans.

[5] = tested on: porcine skin fibroblasts; test: Cytotoxicity test (MTT) with conditioned medium from sterilized scaffolds; format: cell-based; conditions: conditioned medium from treated scaffolds
Experimental: Conditioned cell culture media were prepared from scaffolds treated with the slightly acidic electrolyzed water of the present invention. In brief, serum-free DMEM cell culture medium was incubated overnight with each SAEW-treated scaffold at a concentration of 0.2 g/ml media at 37° C. in a shaker at 70 rpm/min. Cell culture media without scaffolds were prepared by the same method as above to provide unconditioned controls. After incubation, the scaffolds were removed and the medium was filtered through a 0.4 μm filter to prepare culture medium containing soluble factors released from extracellular matrix.
The medium in which fibroblasts were incubated was aspirated, followed by the addition of conditioned or unconditioned culture medium containing 10% FBS and 1% penicillin-streptomycin (Gibco, Grand Island, N.Y., USA) to the well with attached fibroblasts, and the plate was incubated 37° C. in 5% CO2 atmosphere for 24 hours and 48 hours (the culture medium was changed every 24 hours).

[6] = tested on: collagen in porcine liver scaffolds; test: Collagen content, Sircol collagen dye-binding assay; conditions: relative to native liver
Experimental: To evaluate the effects of the slightly acidic electrolyzed water of the present invention on the content of collagen, the total collagen levels in native liver, decellularized scaffolds (untreated), scaffolds treated with PBS, PAA, or ethanol, and scaffolds treated with the slightly acidic electrolyzed water of the present invention were determined using a Sircol collagen dye-binding assay kit (Biocolor Ltd.) according to the manufacturer's instructions.
In more detail, lyophilized samples of native porcine liver slices, scaffolds decellularized by the method of Example 1, porcine liver scaffolds treated with PAA, PBS, ethanol, and slightly acidic electrolyzed water, respectively, were prepared. Then, total acid pepsin-soluble collagen was obtained after incubation in 0.5 M acetic acid containing 0.1 mg/ml pepsin. A 100 μL aliquot of acid neutralizing reagent was added to the acid-pepsin extract. Then, the extract was centrifuged after an overnight incubation at 4° C. Then, 1 mL Sircol dye reagent was added to the pellet and incubated at 25° C. for 30 minutes. After centrifugation, the pellet was washed with acid-salt wash reagent and suspended in 1 mL of alkaline reagent. Then, the absorbance was measured at 540 nm.

[7] = tested on: DNA in porcine liver scaffolds; test: DNA content of treated scaffolds (removal of immunogenic antigens); conditions: relative to untreated scaffolds
Experimental: First, lyophilized samples of native porcine liver slices, scaffolds decellularized by the method of Example 1, porcine liver scaffolds treated with 0.1% peracetic acid solution (PAA; Sigma-Aldrich, St Louis, Mo., USA), PBS, 70% ethanol (Daejung Chemicals and Metals, Seoul, Korea), and slightly acidic electrolyzed water were prepared. Then, DNA was extracted from the lyophilized samples using the DNeasy Blood and Tissue Kit (Qiagen, Hilden, Germany).

SMILES	seeded fibroblasts attached to scaffolds and remaining viable [1] [%]	percentage of Ki-67 positive cells compared to the control group [2]	symptoms of infection ([3]; Columbia blood agar, 6 hour)	symptoms of infection ([3]; Columbia blood agar, 24 hour)	symptoms of infection ([3]; Columbia blood agar, 36 hour)	symptoms of infection ([3]; Columbia blood agar, 48 hour)	symptoms of infection ([3]; Columbia blood agar, 60 hour)	symptoms of infection ([3]; DMEM + 10% FBS, 6 hour)	symptoms of infection ([3]; DMEM + 10% FBS, 24 hour)	symptoms of infection ([3]; DMEM + 10% FBS, 36 hour)	symptoms of infection ([3]; DMEM + 10% FBS, 48 hour)	symptoms of infection ([3]; DMEM + 10% FBS, 60 hour)	symptoms of infection ([3]; DMEM + 10% FBS, 72 hour)	content of glycosaminoglycans, % of that in untreated and decellularized scaffolds [4] [%]	content of glycosaminoglycans, % of that in untreated scaffolds [4] [%]	proliferation rate of fibroblasts compared to unconditioned medium ([5]; incubation for 24 hours) [%]	proliferation rate of fibroblasts compared to unconditioned medium ([5]; incubation for 48 hours) [%]	further results
CCO [Ethanol, ethanol]	64.86±3.48	no significant difference	−	−	−	−	+	−	−	−	−	−	+	64.16±1.92	49.1±1.47	109.22±5.58	113.95±6.67	content of collagen, % of that in native liver [6]: 87.54±4.07%
CC(=O)OO [PAA, peracetic acid]	71.50±1.95	no significant difference	−	−	−	−	−	−	−	−	−	−	−	56±1.04	43±0.80	119.18±5.6	127.43±6.68	symptoms of infection ([3]; Columbia blood agar, 72 hour): −; symptoms of infection ([3]; Columbia blood agar, 96 hour): −; symptoms of infection ([3]; DMEM + 10% FBS, 96 hour): −; efficiency for removing the DNA content [7]: 93.13±2.82%

Reference: US9232804B2, “Compositions and methods for sterilizing bioscaffolds” (KNU University-Industry Cooperation Foundation, priority 2012, dated 2016)
